Measured values from patent US9493490B1, “Boron-containing small molecules” (Anacor Pharmaceuticals, Inc., priority 2013, dated 2016).
Where two headings read alike, the source gives them in different places.

Legend:
[1] = tested on: TNF-a secretion from LPS stimulated hPBMC; assay: Inhibition of TNF-a secretion from LPS stimulated hPBMC; type: cell-based, human; conditions: LPS for 24 hours
Method: Measurement of the inhibition of cytokine secretion from stimulated human peripheral blood mononuclear cells by drugs was performed as described in Dong C. et al., J Pharmacol Exp Ther. 2013 February; 344(2):436-46; and Akama T. et al., Bioorg Med Chem Lett. 2013 Mar. 15; 23(6):1680-3. Briefly PBMC were incubated with drug, and stimulators; LPS for 24 hours to release TNF-α, and IL-6; PHA for 24 hours, to release IL-2 and IFN-γ, and PHA for 48 hours, to release IL-5 and IL-13. The cell culture supernatants were collected for cytokine determinations using Cisbio HTRF cytokine determination kits. Compounds were prepared using an eight point 1:10 dilution series starting at 10 or 100 uM; the resulting dose-response curves were fit to the four parameter sigmoid equation.

[2] = target: T1, ROCK1 (Homo sapiens (Human), UniProt Q13464); assay: ROCK1 phosphorylation activity (Reaction Biology, radiometric); type: biochemical, H. sapiens
Method: (§1) Phosphorylation of activity of ROCK1 and ROCK2 and those of other kinases, AKT1, GRK2, PKA, PKCa and RSK1 were performed by Reaction Biology (Malvern, Pa.) (Ma et al., 2008) The ROCK1 enzyme tested was GST[1-535] ROCK1 (Genbank, NP 005397), ROCK2 was GST[5-554] (Genbank, 3327051). For the kinase assay buffers contained 20 mM Hepes, 10 mM MgCl2, 2 mM DTT, 0.02 mg/mL BSA, 0.1% DMSO, 1 mM EGTA, 0.02% Brij-35, 10 uM ATP, [γP^33]-ATP and for ROCK enzymes, 20 uM long S6-peptide (32 amino acids length). Appropriate substrates and activation was applied for the other kinases tested. Each enzyme was preincubated with test compound for 15 min., and the reaction started by addition of ATP. Samples were incubated at room temperature for 120 min, and applied to P81 ion exchange paper and washed extensively; the radioactive content of the filters were determined. […] Selectivity ratio is the value for PKA/ROCK2.
Target sequence in this assay (Q13464 1-535): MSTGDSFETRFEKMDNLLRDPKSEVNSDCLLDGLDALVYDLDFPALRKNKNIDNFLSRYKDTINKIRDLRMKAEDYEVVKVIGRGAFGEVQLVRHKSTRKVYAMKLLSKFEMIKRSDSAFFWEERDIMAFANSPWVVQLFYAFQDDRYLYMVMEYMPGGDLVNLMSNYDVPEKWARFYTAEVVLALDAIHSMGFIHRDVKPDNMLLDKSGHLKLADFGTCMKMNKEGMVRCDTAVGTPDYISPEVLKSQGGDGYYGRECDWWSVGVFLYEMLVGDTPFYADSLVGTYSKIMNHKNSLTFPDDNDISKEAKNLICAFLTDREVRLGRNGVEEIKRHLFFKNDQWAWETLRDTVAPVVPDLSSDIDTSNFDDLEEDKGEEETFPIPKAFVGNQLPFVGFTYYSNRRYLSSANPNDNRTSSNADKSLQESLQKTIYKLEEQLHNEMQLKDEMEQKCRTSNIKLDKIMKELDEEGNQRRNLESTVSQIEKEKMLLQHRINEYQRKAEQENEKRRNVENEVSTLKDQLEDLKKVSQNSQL

[3] = target: T1, ROCK1; assay: Kinase binding panel (KINOMEscan), ROCK1; conditions: table under Kinase Binding Panel
Method: (§2) Kinase inhibition potency was measured using KINOMEscan™ technology across 402 human kinases [Fabian et al., Nat Biotechnol. 2005 March; 23(3):329-36] (DiscoverRx, Inc., (Fremont, Calif.)). The assay is based on a competition binding assay which quantitatively measures the ability of a compound to compete with an immobilized, active-site directed ligand. […] 2008 January; 26(1):127-32; Fabian et al., Nat Biotechnol. 2005 March; 23(3):329-36]. The assay is performed by combining three components: DNA-tagged kinase; immobilized ligand; and a test compound. Binding reactions were assembled by combining, for 1 hr at room temperature, kinases, liganded affinity beads, and test compounds in binding buffer (20% SeaBlock, 0.17×PBS, 0.05% Tween-20, 6 mM DTT). The assay plates were washed and then re-suspended in elution buffer for 30 min. (PBS, 0.05% Tween 20, 0.5 μM non-biotinylated affinity ligand). The kinase concentration in the eluates was measured by qPCR.

[4] = target: T2, ROCK2 (Homo sapiens (Human), UniProt O75116); assay: Kinase binding panel (KINOMEscan), ROCK2; conditions: table under Kinase Binding Panel
Method: as §2
Target sequence in this assay (O75116 whole entry): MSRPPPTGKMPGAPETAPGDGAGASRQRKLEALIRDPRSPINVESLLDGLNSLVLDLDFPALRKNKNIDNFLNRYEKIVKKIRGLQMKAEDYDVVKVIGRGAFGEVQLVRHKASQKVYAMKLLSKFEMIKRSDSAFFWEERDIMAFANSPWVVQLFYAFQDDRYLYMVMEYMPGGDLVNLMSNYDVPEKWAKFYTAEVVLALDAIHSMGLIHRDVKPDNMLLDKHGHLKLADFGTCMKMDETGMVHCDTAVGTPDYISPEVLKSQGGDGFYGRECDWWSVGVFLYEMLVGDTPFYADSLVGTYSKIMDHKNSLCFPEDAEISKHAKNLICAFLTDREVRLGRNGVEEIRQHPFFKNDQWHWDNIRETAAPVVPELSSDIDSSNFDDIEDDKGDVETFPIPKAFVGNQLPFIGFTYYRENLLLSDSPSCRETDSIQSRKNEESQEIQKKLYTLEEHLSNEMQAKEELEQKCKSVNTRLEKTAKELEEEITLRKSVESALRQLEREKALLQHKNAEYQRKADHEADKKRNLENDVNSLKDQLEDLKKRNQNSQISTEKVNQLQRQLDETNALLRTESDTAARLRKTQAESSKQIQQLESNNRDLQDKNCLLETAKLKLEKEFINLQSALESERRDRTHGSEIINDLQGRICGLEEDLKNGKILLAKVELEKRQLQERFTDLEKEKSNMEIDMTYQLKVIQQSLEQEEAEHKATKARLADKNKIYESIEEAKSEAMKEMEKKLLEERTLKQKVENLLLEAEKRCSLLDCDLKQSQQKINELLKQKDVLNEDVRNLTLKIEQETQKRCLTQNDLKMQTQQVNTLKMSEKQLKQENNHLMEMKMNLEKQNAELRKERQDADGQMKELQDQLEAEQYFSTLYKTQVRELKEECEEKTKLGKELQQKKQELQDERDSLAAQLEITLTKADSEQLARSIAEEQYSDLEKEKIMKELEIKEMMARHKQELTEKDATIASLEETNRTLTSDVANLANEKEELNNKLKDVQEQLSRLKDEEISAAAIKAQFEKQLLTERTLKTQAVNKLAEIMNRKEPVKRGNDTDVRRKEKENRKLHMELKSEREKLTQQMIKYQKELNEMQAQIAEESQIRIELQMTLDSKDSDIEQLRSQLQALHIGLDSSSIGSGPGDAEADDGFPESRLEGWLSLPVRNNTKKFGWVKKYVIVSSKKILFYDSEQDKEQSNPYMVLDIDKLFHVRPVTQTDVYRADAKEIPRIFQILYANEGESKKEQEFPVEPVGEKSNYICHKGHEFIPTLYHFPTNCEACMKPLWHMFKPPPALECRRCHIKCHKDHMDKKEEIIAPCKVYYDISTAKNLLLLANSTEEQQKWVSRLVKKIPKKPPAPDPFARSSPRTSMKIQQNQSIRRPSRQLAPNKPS

[5] = target: T2, ROCK2; assay: ROCK2 phosphorylation activity (Reaction Biology, radiometric); type: biochemical; conditions: for IC50: 10 uM ATP
Method: as §1
Target sequence in this assay (O75116 5-554): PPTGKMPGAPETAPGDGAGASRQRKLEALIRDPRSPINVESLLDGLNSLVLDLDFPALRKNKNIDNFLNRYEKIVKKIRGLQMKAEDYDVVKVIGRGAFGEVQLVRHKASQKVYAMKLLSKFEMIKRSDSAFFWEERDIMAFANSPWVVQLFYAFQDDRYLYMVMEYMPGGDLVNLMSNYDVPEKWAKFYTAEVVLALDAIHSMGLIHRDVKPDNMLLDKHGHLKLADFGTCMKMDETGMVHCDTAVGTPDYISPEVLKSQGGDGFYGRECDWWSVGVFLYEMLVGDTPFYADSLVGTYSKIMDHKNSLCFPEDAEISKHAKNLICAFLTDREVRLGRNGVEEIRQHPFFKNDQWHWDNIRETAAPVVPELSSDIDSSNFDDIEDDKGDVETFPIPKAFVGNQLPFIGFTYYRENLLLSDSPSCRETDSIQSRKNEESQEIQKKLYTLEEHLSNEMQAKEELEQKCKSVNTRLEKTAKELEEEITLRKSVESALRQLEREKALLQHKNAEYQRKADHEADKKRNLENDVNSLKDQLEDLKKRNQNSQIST

[6] = target: AKT1 (Homo sapiens (Human), UniProt P31749); assay: AKT1 phosphorylation activity; type: biochemical; conditions: 10 uM ATP
AKT1, sequence (P31749 whole entry, species assumed): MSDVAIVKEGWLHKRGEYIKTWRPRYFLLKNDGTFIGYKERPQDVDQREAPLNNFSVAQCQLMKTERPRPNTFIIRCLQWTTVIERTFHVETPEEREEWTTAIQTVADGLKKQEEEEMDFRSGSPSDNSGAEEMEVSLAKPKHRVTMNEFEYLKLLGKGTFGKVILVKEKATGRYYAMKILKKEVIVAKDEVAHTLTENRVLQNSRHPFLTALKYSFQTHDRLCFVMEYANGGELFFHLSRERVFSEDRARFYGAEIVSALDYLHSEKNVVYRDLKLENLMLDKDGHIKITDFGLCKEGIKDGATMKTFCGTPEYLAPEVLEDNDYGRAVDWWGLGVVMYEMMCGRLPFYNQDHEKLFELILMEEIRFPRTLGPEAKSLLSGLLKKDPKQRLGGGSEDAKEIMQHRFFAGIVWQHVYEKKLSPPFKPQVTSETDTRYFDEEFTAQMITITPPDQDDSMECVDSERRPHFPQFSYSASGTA
Method: as §1

[7] = target: PKA (Homo sapiens (Human), UniProt P17612); assay: PKA phosphorylation activity; type: biochemical; conditions: 10 uM ATP
Method: as §1

[8] = target: PKCa (Homo sapiens (Human), UniProt P17252); assay: PKCa phosphorylation activity; type: biochemical; conditions: 10 uM ATP
Method: as §1

[9] = target: RSK1 (Homo sapiens (Human), UniProt Q15418); assay: RSK1 phosphorylation activity; type: biochemical; conditions: 10 uM ATP
RSK1, sequence (Q15418 whole entry, species assumed): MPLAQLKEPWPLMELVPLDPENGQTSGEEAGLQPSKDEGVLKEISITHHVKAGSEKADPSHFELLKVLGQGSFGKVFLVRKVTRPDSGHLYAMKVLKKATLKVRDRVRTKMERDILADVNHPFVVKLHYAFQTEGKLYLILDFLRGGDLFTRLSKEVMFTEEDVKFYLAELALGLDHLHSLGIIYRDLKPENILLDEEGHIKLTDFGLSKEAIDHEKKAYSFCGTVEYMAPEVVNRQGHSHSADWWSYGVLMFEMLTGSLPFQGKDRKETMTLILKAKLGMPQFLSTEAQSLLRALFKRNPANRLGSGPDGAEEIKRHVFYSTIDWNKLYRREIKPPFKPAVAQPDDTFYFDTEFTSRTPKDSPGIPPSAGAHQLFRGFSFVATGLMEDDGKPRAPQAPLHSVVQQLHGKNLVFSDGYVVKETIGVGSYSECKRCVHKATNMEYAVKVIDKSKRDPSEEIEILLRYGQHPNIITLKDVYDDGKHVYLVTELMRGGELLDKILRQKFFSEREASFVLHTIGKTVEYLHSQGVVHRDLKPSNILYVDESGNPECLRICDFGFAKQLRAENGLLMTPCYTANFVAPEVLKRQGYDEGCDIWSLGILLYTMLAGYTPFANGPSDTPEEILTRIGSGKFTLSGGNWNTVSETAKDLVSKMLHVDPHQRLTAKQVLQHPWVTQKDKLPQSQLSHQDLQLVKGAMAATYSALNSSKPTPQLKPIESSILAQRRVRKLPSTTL
Method: as §1

[10] = target: GRK2 (Homo sapiens (Human), UniProt P25098); assay: GRK2 phosphorylation activity; type: biochemical; conditions: 10 uM ATP
GRK2, sequence (P25098 whole entry, species assumed): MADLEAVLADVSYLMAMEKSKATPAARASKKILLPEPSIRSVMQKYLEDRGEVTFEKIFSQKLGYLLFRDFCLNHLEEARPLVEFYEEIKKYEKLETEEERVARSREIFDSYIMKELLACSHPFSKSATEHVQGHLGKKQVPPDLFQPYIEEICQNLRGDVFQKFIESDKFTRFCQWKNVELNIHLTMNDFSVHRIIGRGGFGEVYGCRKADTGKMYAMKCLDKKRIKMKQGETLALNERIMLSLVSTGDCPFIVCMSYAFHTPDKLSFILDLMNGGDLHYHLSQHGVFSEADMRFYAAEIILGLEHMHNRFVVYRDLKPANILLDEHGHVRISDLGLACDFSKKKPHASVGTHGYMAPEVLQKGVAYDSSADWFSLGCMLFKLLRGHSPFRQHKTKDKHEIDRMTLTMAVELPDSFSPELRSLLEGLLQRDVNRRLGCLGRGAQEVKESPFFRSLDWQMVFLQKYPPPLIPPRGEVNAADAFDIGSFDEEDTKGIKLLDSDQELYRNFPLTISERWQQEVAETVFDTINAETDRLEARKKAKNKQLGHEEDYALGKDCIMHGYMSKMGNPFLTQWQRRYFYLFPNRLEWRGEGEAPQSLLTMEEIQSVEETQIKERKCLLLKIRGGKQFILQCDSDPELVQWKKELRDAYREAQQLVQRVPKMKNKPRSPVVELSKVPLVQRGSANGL
Method: as §1

[11] = tested on: p-MYPT1 phosphorylation in PANC-1 cells; assay: Intracellular MYPT1 phosphorylation assay in PANC-1 cells; type: cell-based, H. sapiens; conditions: Homo sapiens
Method: Intracellular MYPT1 phosphorylation assay used the procedures of Garton et al. with minor modifications (Garton et al. Methods Enzymol. 2008; 439:491-500). PANC-1 cells (ACTT, CRL-1469), 18×10^3/well, grown over night in DMEM medium supplemented with 4.5 g/L glucose, L-glutamine, sodium pyruvate and 10% FBS at 37° C. Compounds were applied to the cells for one hour (DMSO final 1%) and the cells were then lysed. Phosphorylated-MYPT1 was detected using plate immobilized anti-MYPT1 antibody (BD Biosciences, cat. 612165), anti-phospo-MYPT1([…]), US Biological, cat. M9925-08) and secondary HRP-conjugated goat anti-rabbit IgG antibody (Jackson Laboratories, cat. 111-035-003), phospho-MYPT1 was quantified using color formed by the tetramethylbenzidine (TMB) HRP substrate.

[12] = 10 uM ATP, read-out: ROCK1 IC50
[13] = read-out: Inhibition of hROCK1 Phosphorylation [IC50
[14] = read-out: IC50: ROCK1: H. sapiens
[15] = PANC-1 cells, .0417 days (compounds applied for one hour), read-out: IC50: Inhib p-MYPT1 Phosphorylation in H. sapiens PANC-1 cells, .0417 days

| IC50 ([1]; Homo sapiens) [µM] | IC50 [2, 12] [µM] | IC50 [2, 13] [µM] | IC50 [3] [µM] | IC50 [4] [µM] | IC50 [5] [µM] | SELECTIVITY RATIO ([5]; value for PKA/ROCK2) | IC50 [6] [µM] | IC50 [7] [µM] | IC50 [8] [µM] | IC50 [9] [µM] | IC50 ([1]; Homo sapiens, 24 h) [µM] | IC50 [10] [µM] | SMILES | IC50 [2, 14] [µM] | IC50 [11, 15] [µM] | IC50 [1] [µM] | S[…] ([5]; value for PKA/ROCK2) | IC50 ([11]; PANC-1, read-out: IC50: Inhib p-MYPT1 Phosphorylation in H. sapiens PANC-1 cells, .0417 days [uM]) [µM] |
| --- | --- | --- | --- | --- | --- | --- | --- | --- | --- | --- | --- | --- | --- | --- | --- | --- | --- | --- |
| 5.63 | 0.06 | 0.596 | 0.0596 | 0.0472 | 0.047 | 1.17 | 4.22 | 0.055 | 10.8 | 0.195 | – | – | CC(C)c1c(Oc2ccc(CN)cc2Cl)ccc2c1B(O)OC2 [N, 6-(4-(aminomethyl)-2-chlorophenoxy)-7-isopropylbenzo[c][1,2]oxaborol-1 (3H)-ol] | – | – | – | – | – |
| 99 | – | 11 | 23 | 16 | – | – | – | – | – | – | – | – | NCc1ccc(Oc2ccc3c(c2Cl)B(O)OC3)c(Cl)c1 [B, 6-(4-(aminomethyl)-2-chlorophenoxy)-7-chlorobenzo[c][1,2]oxaborol-1(3H)-ol] | – | – | – | – | – |
| – | – | 0.54 | 0.54 | 0.45 | – | >111 | > 30 | > 50 | > 20 | > 50 | 12 | > 20 | CC(N)c1ccc(Oc2ccc3c(c2)B(O)OC3)c(F)c1.Cl (stereo not shown) [C, 6-(4-(1-aminoethyl)-2-fluorophenoxy)benzo[c][1,2]oxaborol-1(3H)-ol] | 0.54 | 48.1 | – | – | – |
| 3.61 | – | 0.29 | 0.29 | 0.25 | – | – | – | – | – | – | – | – | CCc1c(Oc2ccc(CN)cc2Cl)ccc2c1B(O)OC2 [A, 6-(4-(Aminomethyl)-2-chlorophenoxy)-7-ethylbenzo[c][1,2]oxaborol-1(3H)-ol] | – | – | – | – | – |
| – | – | 0.72 | 0.72 | 0.664 | 0.66 | 11.87 | > 30 | 7.88 | > 30 | 25 | – | > 30 | Cc1c(Oc2cccc(CNC(=O)OC(C)(C)C)c2F)ccc2c1B(O)OC2 [L, tert-butyl 2-fluoro-3-(1-hydroxy-7-methyl-1,3-dihydrobenzo[c][1,2]oxaborol-6-yloxy)benzylcarbamate] | – | – | – | – | – |
| – | 0.25 | 0.247 | 0.247 | 0.216 | 0.22 | 15.65 | > 30 | 3.38 | > 30 | 5.19 | – | > 30 | Cc1c(Oc2cccc(CN)c2F)ccc2c1B(O)OC2 [M, 6-(3-(aminomethyl)-2-fluorophenoxy)-7-methylbenzo[c][1,2]oxaborol-1(3H)-ol] | – | – | – | – | – |
| – | – | 0.34 | 0.34 | 0.25 | – | 16.29 | 9.25 | 4.06 | > 20 | 5.01 | 12.3 | > 20 | Cc1c(Oc2ccc(CN)cc2F)ccc2c1B(O)OC2 [D, 6-(4-(aminomethyl)-2-fluorophenoxy)-7-methylbenzo[c][1,2]oxaborol-1(3H)-ol] | 0.34 | 18.2 | – | – | – |

| SMILES | IC50 ([1]; Homo sapiens) [µM] | IC50 [2, 12] [µM] | IC50 [2, 13] [µM] | IC50 [3] [µM] | IC50 [4] [µM] | IC50 [5] [µM] | SELECTIVITY RATIO ([5]; value for PKA/ROCK2) | IC50 [6] [µM] | IC50 [7] [µM] | IC50 [8] [µM] | IC50 [9] [µM] | IC50 ([1]; Homo sapiens, 24 h) [µM] | IC50 [10] [µM] | IC50 [2, 14] [µM] | IC50 [11, 15] [µM] | IC50 [1] [µM] | S[…] ([5]; value for PKA/ROCK2) | IC50 ([11]; PANC-1, read-out: IC50: Inhib p-MYPT1 Phosphorylation in H. sapiens PANC-1 cells, .0417 days [uM]) [µM] |
| --- | --- | --- | --- | --- | --- | --- | --- | --- | --- | --- | --- | --- | --- | --- | --- | --- | --- | --- |
| Cc1c(Oc2ccc(C(C)N)cc2F)ccc2c1B(O)OC2 (stereo not shown) [E, 6-(4-(1-aminoethyl)-2-fluorophenoxy)-7-methylbenzo[c][1,2]oxaborol-1(3H)-ol] | – | – | 0.42 | 0.42 | 0.25 | – | 24.74 | 21.5 | 6.09 | > 20 | 8.31 | 5.4 | > 20 | 0.42 | 39.7 | – | – | – |
| Cc1c(Oc2ccc(C(C)N)cc2F)ccc2c1B(O)OC2.Cl (single isomer, unassigned) [F] | – | – | 0.54 | 0.54 | 0.51 | – | 21.51 | 44.1 | 11 | > 20 | 17.2 | – | > 20 | 0.54 | 56.4 | 20.5 | – | – |
| Cc1c(Oc2ccc(C(C)N)cc2F)ccc2c1B(O)OC2 (single isomer, unassigned) [G] | – | – | 0.17 | 0.17 | 0.17 | – | – | 10.9 | 1.79 | 15.6 | 3.62 | – | 13.9 | 0.17 | – | 5.18 | 10.40 | 18.7 |
